Patent US11976069B2, “Inhibitors of histone deacetylase useful for the treatment or prevention of HIV infection” (Merck Sharp & Dohme LLC, priority 2019, dated 2024)
Read-outs that look alike come from different tables or passages of the source.

Biological target: T1, HDAC6 (Homo sapiens, UniProt Q9UBN7)
T1 sequence (Q9UBN7 1-1215): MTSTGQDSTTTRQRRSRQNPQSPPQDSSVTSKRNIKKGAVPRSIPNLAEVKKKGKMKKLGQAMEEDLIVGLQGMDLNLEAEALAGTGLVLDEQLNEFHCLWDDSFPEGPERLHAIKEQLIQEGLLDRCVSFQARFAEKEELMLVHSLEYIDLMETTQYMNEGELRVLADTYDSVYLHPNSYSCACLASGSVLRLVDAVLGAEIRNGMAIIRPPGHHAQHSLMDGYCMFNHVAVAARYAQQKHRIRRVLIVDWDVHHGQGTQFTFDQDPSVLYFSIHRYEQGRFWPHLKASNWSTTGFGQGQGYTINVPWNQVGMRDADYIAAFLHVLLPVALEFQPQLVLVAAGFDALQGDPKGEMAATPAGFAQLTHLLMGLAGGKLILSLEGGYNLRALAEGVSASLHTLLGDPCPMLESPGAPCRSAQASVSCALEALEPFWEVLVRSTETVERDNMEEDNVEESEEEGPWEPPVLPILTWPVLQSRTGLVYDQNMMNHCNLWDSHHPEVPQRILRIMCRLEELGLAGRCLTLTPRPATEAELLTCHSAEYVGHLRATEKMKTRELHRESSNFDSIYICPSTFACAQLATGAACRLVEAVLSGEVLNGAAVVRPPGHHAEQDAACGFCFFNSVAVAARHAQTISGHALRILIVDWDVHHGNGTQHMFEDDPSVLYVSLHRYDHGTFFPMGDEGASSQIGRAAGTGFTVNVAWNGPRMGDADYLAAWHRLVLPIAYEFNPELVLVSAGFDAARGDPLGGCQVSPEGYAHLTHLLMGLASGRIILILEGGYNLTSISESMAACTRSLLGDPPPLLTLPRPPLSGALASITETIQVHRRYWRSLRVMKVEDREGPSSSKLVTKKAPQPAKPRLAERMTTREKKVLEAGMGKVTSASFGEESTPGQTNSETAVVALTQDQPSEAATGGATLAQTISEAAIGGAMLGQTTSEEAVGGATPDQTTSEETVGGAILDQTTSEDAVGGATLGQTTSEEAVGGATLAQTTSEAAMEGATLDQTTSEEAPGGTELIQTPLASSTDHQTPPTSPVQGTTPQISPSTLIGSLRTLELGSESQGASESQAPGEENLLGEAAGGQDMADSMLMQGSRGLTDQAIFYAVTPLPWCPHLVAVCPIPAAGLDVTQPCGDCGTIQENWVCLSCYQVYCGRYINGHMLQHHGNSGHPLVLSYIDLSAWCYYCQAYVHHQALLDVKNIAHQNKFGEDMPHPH
Experiment: HDAC6 inhibition, modified Fluor-de-Lys assay
Assay type: biochemical
Settings: 3 h pre-incubation, read-out: HDAC-6 IC50
Experimental: Human HDAC Enzyme Inhibitor FLUOR-DE-LYS Assay Materials
The histone deacetylase activities of HDAC1, HDAC2, HDAC3, HDAC6, and HDAC8 were measured in modified Fluor-de-Lys assays in 384-well format. In this assay, HDAC enzymes are initially incubated with an ε-acetyl (or -trifluoroacetyl)-L-lysine-containing substrate with a C-terminal amide having aminomethylcoumarin as the amine component. HDACs cleave the ε-acetyl group, rendering the resulting product susceptible to AMC cleavage by trypsin. The released AMC is then detected by its fluorescence.
The HDAC 1, 2 assays employed buffer A, which contained 20 mM HEPES, pH 8.0, 1 mM MgCl2, 137 mM NaCl, 2.7 mM KCl, 0.05% BSA. The HDAC3/SMRT assay employed buffer B, consisting of 20 mM HEPES, pH 8.0, 1 mM MgCl2, 50 mM NaCl, 2.7 mM KCl, 0.05% BSA, 0.005% Tween 20, and 10 μM IP4. The HDAC6 assay employed buffer C, consisting of 20 mM HEPES, pH 8.0, 1 mM MgCl2, 137 mM NaCl, 2.7 mM KCl, 0.5 mM TCEP (Calbiochem) and 0.05% BSA. The HDAC8 assay employed buffer D, consisting of 20 mM HEPES, pH 8.0, 1 mM MgCl2, 100 mM NaCl, 20 mM KCl, 0.1% n-octyl-β-D-glucoside (Anatrace, Maumee, Ohio) and 0.05% BSA. All steps were performed at room temperature (23° C.). The assay was performed by pre-incubating serial dilutions of test compounds with the target HDAC prior to initiation with substrate. Each compound was titrated in a 10-point dose response, using a 1:3 fold dilution scheme, with 0.15 ul of solution added by ECHO555 to the plate, followed by the addition of 20 μl of the appropriate HDAC isoform diluted in appropriate assay buffer. […] Final conditions used for each assay were: 1. HDAC 1, 0.3 nM total enzyme, 20 μM substrate BML-KI104; 2. HDAC 2, 1.5 nM total enzyme, 40 μM substrate BML-KI104; 3. HDAC 3/SMRT, 0.3 nM total enzyme, 20 μM substrate BML-KI104; 4. HDAC 6, 1.3 nM total enzyme, 2.5 μM substrate BML-KI104; 5. HDAC 8, 1.3 nM total enzyme, 200 μM substrate BML-KI178; the final high dose of test compound was 30 μM. For potent compounds, 900 nM was used as the final high dose. The reactions were stopped and developed by addition of 30 ul of HDAC developer solution containing a saturating level of HDAC inhibitor as follows: 1.

[1] = […] enzyme, […] substrate BML-KI104
[2] = 1.3 nM enzyme, 2.5 μM substrate BML-KI104

Compound | IC50 [1] | IC50 [2]
CCC(=O)CCCCC[C@@H]1NC(=O)[C@H]2CC23CCN(CCCCCCCCn2ccc4cc(c(OC)cc4c2=O)-c2cnc1[nH]2)CC3 [Compound 5, (1^1S,4S)-6^7-methoxy-4-(6-oxooctyl)-6^1,6^2-dihydro-5^1H-3-aza-6(6,2)-isoquinolina-15(4,1)-piperidina-5(2,5)-imidazola-1(1,2)-cyclopropanapentadecaphane-6^1,2-dione] | 218 nM | 
CCC(=O)CCCCCC1NC(=O)C2CC2N2CCC(CCCCCn3c(=O)ccc4cc(ccc43)-c3cnc1o3)CC2 [Compound 7, (11S,4S)-4-(6-oxooctyl)-61,62-dihydro-3-aza-5(2,5)-oxazola-6(6,1)-quinolina-12(4,1)-piperidina-1(1,2)-cyclopropanadodecaphane-62,2-dione] | 858 nM | 
CCC(=O)CCCCC[C@H](NC(=O)[C@H]1CC12CCN(CC)CC2)c1[nH]c2nc1C(=O)NCCC/C=C\c1cccc-2c1 [Compound 14, (1S)-6-ethyl-N-{(1S)-7-oxo-1-[(11Z)-6-oxo-3,7,18-triazatricyclo[11.3.1.1~2,5~]octadeca-1(17),2(18),4,11,13,15-hexaen-4-yl]nonyl}-6-azaspiro[2.5]octane-1-carboxamide] |  | > 90 nM
CCC(=O)CCCCC[C@H](NC(=O)[C@H]1CC12CCN(CC)CC2)c1[nH]c2nc1C(=O)NCCC/C=C/c1cccc-2c1 [Compound 15, (1S)-6-ethyl-N-{(1S)-7-oxo-1-[(11E)-6-oxo-3,7,18-triazatricyclo[11.3.1.1~2,5~]octadeca-1(17),2(18),4,11,13,15-hexaen-4-yl]nonyl}-6-azaspiro[2.5]octane-1-carboxamide] |  | > 900 nM
(11S,4S)-4-(6-oxooctyl)-61,62-dihydro-3-aza-5(2,5)-oxazola-6(6,1)-quinolina-12(4,1)-piperidina-1(1,2)-cyclopropanadodecaphane-62,2-dione [Compound 8] | > 900 nM | 
